Numbered stars: 1 amine (or outer) side, 2 acyl side, 3 side chain; on linkers, the order of the positions; unused ones are H or OH. Square brackets hold non-standard residues; d marks the D form. Peptide text beside a SMILES is read from it. * marks the point of attachment. X2 = CON(C)C(=O)OCCCC[C@@H](C)[C@@H](O)[C@@H](C(=O)[*:2])N(C)[*:1]; X10 = C[C@H](CCOC(=O)NC1CC1)[C@@H](O)[C@@H](C(=O)[*:2])N(C)[*:1]; X5 = C[C@H](CCCCOC(=O)N(C)C)[C@@H](O)[C@@H](C(=O)[*:2])N(C)[*:1]; X9 = C[C@H](CCCCN=[N+]=[N-])[C@@H](O)[C@@H](C(=O)[*:2])N(C)[*:1]; X7 = CCOC(=O)NCCCC[C@@H](C)[C@@H](O)[C@@H](C(=O)[*:2])N(C)[*:1]; X8 = CCOC(=O)OCCCC[C@@H](C)[C@@H](O)[C@@H](C(=O)[*:2])N(C)[*:1]; X1 = COC(=O)NCCCC[C@@H](C)[C@@H](O)[C@@H](C(=O)[*:2])N(C)[*:1]; X4 = COC(=O)OCCCC[C@@H](C)[C@@H](O)[C@@H](C(=O)[*:2])N(C)[*:1]; X3 = CC(=O)NCCCC[C@@H](C)[C@@H](O)[C@@H](C(=O)[*:2])N(C)[*:1]; NMe(dihydroBmt) = CCCC[C@@H](C)[C@@H](O)[C@H](NC)C(=O)O; X6 = C[C@H](CCCCN)[C@@H](O)[C@@H](C(=O)[*:2])N(C)[*:1]; Butyl(4-morpholino) = C(CC*)CN1CCOCC1; NMeT = CN[C@H](C(=O)O)[C@@H](C)O; NMeL = CN[C@@H](CC(C)C)C(=O)O; NMeV = CN[C@H](C(=O)O)C(C)C; dNMeA = CN[C@H](C)C(=O)O; Abu = CC[C@H](N)C(=O)O
Test system: HCV 1a genotype replicon
Experiment: microbe, parasite or virus in culture
Assay type: cell-based
Details: Hepatitis C virus; HCV genotype 1a replicon, luciferase assay, 72 hours; read-out: EC50 (Ia) Genotype-1a Replicon EC50

Row | SMILES | EC50
1 | CC[C@@H]1NC(=O)[C@H]([C@H](O)[C@H](C)CCCCOC(=O)N(C)C)N(C)C(=O)[C@H](C(C)C)N(C)C(=O)[C@H](CC(C)C)N(C)C(=O)[C@H](CC(C)C)N(C)C(=O)[C@@H](C)NC(=O)[C@H](C)NC(=O)[C@H](CC(C)C)N(C)C(=O)[C@H](C(C)C)NC(=O)[C@H]([C@@H](C)OCCCCN2CCOCC2)N(C)C(=O)[C@@H](C)N(C)C1=O [Example 65] (cyclo(A[dA][NMeL][NMeL][NMeV][X5][Abu][dNMeA][NMeT](Butyl(4-morpholino))V[NMeL])) | 10 to 100 nM
2 | CC[C@@H]1NC(=O)[C@H]([C@H](O)[C@H](C)CCCCNC(C)=O)N(C)C(=O)[C@H](C(C)C)N(C)C(=O)[C@H](CC(C)C)N(C)C(=O)[C@H](CC(C)C)N(C)C(=O)[C@@H](C)NC(=O)[C@H](C)NC(=O)[C@H](CC(C)C)N(C)C(=O)[C@H](C(C)C)NC(=O)[C@H]([C@@H](C)OCCCCN2CCOCC2)N(C)C(=O)[C@@H](C)N(C)C1=O [Example 70] (cyclo(A[dA][NMeL][NMeL][NMeV][X3][Abu][dNMeA][NMeT](Butyl(4-morpholino))V[NMeL])) | 10 to 100 nM
3 | CC[C@@H]1NC(=O)[C@H]([C@H](O)[C@H](C)CCCCNC(=O)OC)N(C)C(=O)[C@H](C(C)C)N(C)C(=O)[C@H](CC(C)C)N(C)C(=O)[C@H](CC(C)C)N(C)C(=O)[C@@H](C)NC(=O)[C@H](C)NC(=O)[C@H](CC(C)C)N(C)C(=O)[C@H](C(C)C)NC(=O)[C@H]([C@@H](C)OCCCCN2CCOCC2)N(C)C(=O)[C@@H](C)N(C)C1=O [Example 71] (cyclo(A[dA][NMeL][NMeL][NMeV][X1][Abu][dNMeA][NMeT](Butyl(4-morpholino))V[NMeL])) | 10 to 100 nM
4 | CCOC(=O)NCCCC[C@@H](C)[C@@H](O)[C@H]1C(=O)N[C@@H](CC)C(=O)N(C)[C@H](C)C(=O)N(C)[C@@H]([C@@H](C)OCCCCN2CCOCC2)C(=O)N[C@@H](C(C)C)C(=O)N(C)[C@@H](CC(C)C)C(=O)N[C@@H](C)C(=O)N[C@H](C)C(=O)N(C)[C@@H](CC(C)C)C(=O)N(C)[C@@H](CC(C)C)C(=O)N(C)[C@@H](C(C)C)C(=O)N1C [Example 72] (cyclo(A[dA][NMeL][NMeL][NMeV][X7][Abu][dNMeA][NMeT](Butyl(4-morpholino))V[NMeL])) | 10 to 100 nM
5 | CC[C@@H]1NC(=O)[C@H]([C@H](O)[C@H](C)CCOC(=O)NC2CC2)N(C)C(=O)[C@H](C(C)C)N(C)C(=O)[C@H](CC(C)C)N(C)C(=O)[C@H](CC(C)C)N(C)C(=O)[C@@H](C)NC(=O)[C@H](C)NC(=O)[C@H](CC(C)C)N(C)C(=O)[C@H](C(C)C)NC(=O)[C@H]([C@@H](C)OCCCCN2CCOCC2)N(C)C(=O)[C@@H](C)N(C)C1=O [Example 6] (cyclo(A[dA][NMeL][NMeL][NMeV][X10][Abu][dNMeA][NMeT](Butyl(4-morpholino))V[NMeL])) | > 1000 nM
6 | CC[C@@H]1NC(=O)[C@H]([C@H](O)[C@H](C)CCCCN=[N+]=[N-])N(C)C(=O)[C@H](C(C)C)N(C)C(=O)[C@H](CC(C)C)N(C)C(=O)[C@H](CC(C)C)N(C)C(=O)[C@@H](C)NC(=O)[C@H](C)NC(=O)[C@H](CC(C)C)N(C)C(=O)[C@H](C(C)C)NC(=O)[C@H]([C@@H](C)OCCCCN2CCOCC2)N(C)C(=O)[C@@H](C)N(C)C1=O [Example 68] (cyclo(A[dA][NMeL][NMeL][NMeV][X9][Abu][dNMeA][NMeT](Butyl(4-morpholino))V[NMeL])) | 10 to 100 nM
7 | CC[C@@H]1NC(=O)[C@H]([C@H](O)[C@H](C)CCCCOC(=O)N(C)OC)N(C)C(=O)[C@H](C(C)C)N(C)C(=O)[C@H](CC(C)C)N(C)C(=O)[C@H](CC(C)C)N(C)C(=O)[C@@H](C)NC(=O)[C@H](C)NC(=O)[C@H](CC(C)C)N(C)C(=O)[C@H](C(C)C)NC(=O)[C@H]([C@@H](C)OCCCCN2CCOCC2)N(C)C(=O)[C@@H](C)N(C)C1=O [Example 66] (cyclo(A[dA][NMeL][NMeL][NMeV][X2][Abu][dNMeA][NMeT](Butyl(4-morpholino))V[NMeL])) | 10 to 100 nM
8 | CCCC[C@@H](C)[C@@H](O)[C@H]1C(=O)N[C@@H](CC)C(=O)N(C)[C@H](C)C(=O)N(C)[C@@H]([C@@H](C)OCCCCN2CCOCC2)C(=O)N[C@@H](C(C)C)C(=O)N(C)[C@@H](CC(C)C)C(=O)N[C@@H](C)C(=O)N[C@H](C)C(=O)N(C)[C@@H](CC(C)C)C(=O)N(C)[C@@H](CC(C)C)C(=O)N(C)[C@@H](C(C)C)C(=O)N1C [Example 7] (cyclo(A[dA][NMeL][NMeL][NMeV][NMe(dihydroBmt)][Abu][dNMeA][NMeT](Butyl(4-morpholino))V[NMeL])) | 10 to 100 nM
9 | CCOC(=O)OCCCC[C@@H](C)[C@@H](O)[C@H]1C(=O)N[C@@H](CC)C(=O)N(C)[C@H](C)C(=O)N(C)[C@@H]([C@@H](C)OCCCCN2CCOCC2)C(=O)N[C@@H](C(C)C)C(=O)N(C)[C@@H](CC(C)C)C(=O)N[C@@H](C)C(=O)N[C@H](C)C(=O)N(C)[C@@H](CC(C)C)C(=O)N(C)[C@@H](CC(C)C)C(=O)N(C)[C@@H](C(C)C)C(=O)N1C [Example 64] (cyclo(A[dA][NMeL][NMeL][NMeV][X8][Abu][dNMeA][NMeT](Butyl(4-morpholino))V[NMeL])) | 10 to 100 nM
10 | CC[C@@H]1NC(=O)[C@H]([C@H](O)[C@H](C)CCCCOC(=O)OC)N(C)C(=O)[C@H](C(C)C)N(C)C(=O)[C@H](CC(C)C)N(C)C(=O)[C@H](CC(C)C)N(C)C(=O)[C@@H](C)NC(=O)[C@H](C)NC(=O)[C@H](CC(C)C)N(C)C(=O)[C@H](C(C)C)NC(=O)[C@H]([C@@H](C)OCCCCN2CCOCC2)N(C)C(=O)[C@@H](C)N(C)C1=O [Example 63] (cyclo(A[dA][NMeL][NMeL][NMeV][X4][Abu][dNMeA][NMeT](Butyl(4-morpholino))V[NMeL])) | 10 to 100 nM
11 | CC[C@@H]1NC(=O)[C@H]([C@H](O)[C@H](C)CCCCN)N(C)C(=O)[C@H](C(C)C)N(C)C(=O)[C@H](CC(C)C)N(C)C(=O)[C@H](CC(C)C)N(C)C(=O)[C@@H](C)NC(=O)[C@H](C)NC(=O)[C@H](CC(C)C)N(C)C(=O)[C@H](C(C)C)NC(=O)[C@H]([C@@H](C)OCCCCN2CCOCC2)N(C)C(=O)[C@@H](C)N(C)C1=O [Example 69] (cyclo(A[dA][NMeL][NMeL][NMeV][X6][Abu][dNMeA][NMeT](Butyl(4-morpholino))V[NMeL])) | 100 to 1000 nM

From US9616099B2, “Cyclosporin analogues for preventing or treating hepatitis C infection” (Enanta Pharmaceuticals, Inc., priority 2013, dated 2017)
